Measured values: PubChem BioAssay (NCI)
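Grown in 96-well plates, cells were treated for 48 hours with each compound at five concentrations. Insufficient inhibition: endpoint recorded as highest concentration tested. TGI: concentration producing complete growth inhibition.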 Calls of active or inactive are those of the source. Rule as the data show it: active = GI50 below about 0.43 µM; inactive = the rest.

Key:
Assay in all cases: NCI-60 cell line screen, 48 h
[1] = tested on: U251 CNS
[2] = tested on: EKVX NSCLC
[3] = tested on: OVCAR-4 ovarian
[4] = tested on: SK-MEL-28 melanoma
[5] = tested on: HOP-92 NSCLC
[6] = tested on: SR leukemia
[7] = tested on: UO-31 renal
[8] = tested on: IGROV1 ovarian
[9] = tested on: SF-539 CNS
[10] = tested on: SK-MEL-2 melanoma
[11] = tested on: COLO 205 colon
[12] = tested on: KM20L2 colon
[13] = tested on: SNB-19 CNS
[14] = tested on: MALME-3M melanoma
[15] = tested on: M19-MEL melanoma
[16] = tested on: SNB-78 CNS
[17] = tested on: NCI-H226 lung
[18] = tested on: RPMI-8226 leukemia
[19] = tested on: NCI-H522 lung
[20] = tested on: HCT-15 colon
[21] = tested on: HOP-62 NSCLC
[22] = tested on: UACC-62 melanoma
[23] = tested on: A549 NSCLC
[24] = tested on: HCT-116 colon
[25] = tested on: NCI-H23 lung
[26] = tested on: SF-295 CNS
[27] = tested on: CCRF-CEM leukemia
[28] = tested on: MOLT-4 leukemia
[29] = tested on: OVCAR-8 ovarian
[30] = tested on: SF-268 CNS
[31] = tested on: UACC-257 melanoma
[32] = tested on: K-562 leukemia
[33] = tested on: SW-620 colon
[34] = tested on: SNB-75 CNS
[35] = tested on: XF 498 CNS
[36] = tested on: SK-MEL-5 melanoma
[37] = tested on: KM12 colon
[38] = tested on: LXFL 529 NSCLC
[39] = tested on: A498 renal
[40] = tested on: HCC-2998 colon
[41] = tested on: DLD-1 colon
[42] = tested on: OVCAR-5 ovarian
[43] = tested on: TK-10 renal
[44] = tested on: HL-60(TB) leukemia
[45] = tested on: NCI-H460 lung
[46] = tested on: HT29 colon
[47] = tested on: ACHN renal
[48] = tested on: SN12C renal
[49] = tested on: CAKI-1 renal
[50] = tested on: DMS 273 small cell lung
[51] = tested on: DMS 114 small cell lung
[52] = tested on: M14 melanoma
[53] = tested on: SK-OV-3 ovarian
[54] = tested on: OVCAR-3 ovarian
[55] = tested on: RXF 393 renal
[56] = tested on: 786-0 renal
[57] = tested on: LOX IMVI melanoma

CO/C(=N\N=Cc1ccccc1)c1ccncc1
TGI [1]: > 100 µM
TGI [2]: > 100 µM
TGI [3]: > 100 µM
TGI [4]: > 100 µM
TGI [5]: > 100 µM
TGI [6]: > 100 µM
TGI [7]: > 100 µM
TGI [8]: > 100 µM
TGI [9]: > 100 µM
TGI [10]: > 100 µM
TGI [11]: > 100 µM
TGI [12]: > 100 µM
TGI [13]: > 100 µM
TGI [14]: > 100 µM
TGI [15]: > 100 µM
TGI [16]: > 100 µM
TGI [17]: 97.1 µM
TGI [18]: > 100 µM
TGI [19]: > 100 µM
TGI [20]: > 100 µM
TGI [21]: > 100 µM
TGI [22]: > 100 µM
TGI [23]: > 100 µM
TGI [24]: > 100 µM
TGI [25]: > 100 µM
TGI [26]: > 100 µM
TGI [27]: > 100 µM
TGI [28]: > 100 µM
TGI [29]: > 100 µM
TGI [30]: > 100 µM
TGI [31]: > 100 µM
TGI [32]: > 100 µM
TGI [33]: > 100 µM
TGI [34]: > 100 µM
TGI [35]: > 100 µM
TGI [36]: > 100 µM
TGI [37]: > 100 µM
TGI [38]: > 100 µM
TGI [39]: > 100 µM
TGI [40]: > 100 µM
TGI [41]: > 100 µM
TGI [42]: > 100 µM
TGI [43]: > 100 µM
TGI [44]: > 100 µM
TGI [45]: > 100 µM
TGI [46]: > 100 µM
TGI [47]: > 100 µM
TGI [48]: > 100 µM
TGI [49]: > 100 µM
TGI [50]: > 100 µM
TGI [51]: > 100 µM
TGI [52]: > 100 µM
TGI [53]: > 100 µM
TGI [54]: > 100 µM

C[C@@]1(C(=O)c2ccccc2)N(c2ccccc2)[C@@]1(C)C(=O)c1ccccc1
outcome [1]: inactive
outcome [2]: inactive
outcome [5]: inactive
outcome [6]: inactive
outcome [7]: inactive
outcome [8]: inactive
outcome [9]: inactive
outcome [10]: inactive
outcome [11]: inactive
outcome [12]: inactive
outcome [55]: inactive
outcome [13]: inactive
outcome [14]: inactive
outcome [16]: inactive
outcome [17]: inactive
outcome [18]: inactive
outcome [19]: inactive
outcome [20]: inactive
outcome [21]: inactive
outcome [22]: inactive
outcome [23]: inactive
outcome [25]: inactive
outcome [26]: inactive
outcome [27]: inactive
outcome [28]: inactive
outcome [29]: inactive
outcome [30]: inactive
outcome [31]: inactive
outcome [32]: inactive
outcome [33]: inactive
outcome [34]: inactive
outcome [35]: inactive
outcome [56]: inactive
outcome [37]: inactive
outcome [38]: inactive
outcome [41]: inactive
outcome [42]: inactive
outcome [43]: inactive
outcome [57]: inactive
outcome [44]: inactive
outcome [45]: inactive
outcome [46]: inactive
outcome [47]: inactive
outcome [48]: inactive
outcome [49]: inactive
outcome [50]: inactive
outcome [51]: inactive
outcome [52]: inactive
outcome [53]: inactive
outcome [54]: inactive

COC(=O)C1CCC2(C)[C@H](CCC3O[C@]32C)[C@@]1(C)CC(=O)c1ccoc1 (some centres not stated)
TGI [1]: > 100 µM
TGI [2]: > 100 µM
TGI [3]: > 100 µM
TGI [4]: > 100 µM
TGI [6]: > 100 µM
TGI [7]: > 100 µM
TGI [8]: > 100 µM
TGI [9]: > 100 µM
TGI [11]: > 100 µM
TGI [12]: > 100 µM
TGI [55]: > 100 µM
TGI [13]: > 100 µM
TGI [14]: > 100 µM
TGI [15]: > 100 µM
TGI [16]: > 100 µM
TGI [17]: > 100 µM
TGI [18]: > 100 µM
TGI [19]: > 100 µM
TGI [20]: > 100 µM
TGI [21]: > 100 µM
TGI [22]: > 100 µM
TGI [23]: > 100 µM
TGI [24]: > 100 µM
TGI [25]: > 100 µM
TGI [26]: > 100 µM
TGI [27]: > 100 µM
TGI [28]: > 100 µM
TGI [29]: > 100 µM
TGI [30]: > 100 µM
TGI [31]: > 100 µM
TGI [32]: > 100 µM
TGI [33]: > 100 µM
TGI [35]: > 100 µM
TGI [36]: > 100 µM
TGI [56]: > 100 µM
TGI [37]: > 100 µM
TGI [38]: > 100 µM
TGI [39]: > 100 µM
TGI [40]: > 100 µM
TGI [41]: > 100 µM
TGI [42]: > 100 µM
TGI [43]: > 100 µM
TGI [57]: > 100 µM
TGI [44]: > 100 µM
TGI [45]: > 100 µM
TGI [47]: > 100 µM
TGI [48]: > 100 µM
TGI [49]: > 100 µM
TGI [50]: > 100 µM
TGI [51]: > 100 µM
TGI [52]: > 100 µM
TGI [53]: > 100 µM
TGI [54]: > 100 µM
